Data reported in patent publication US8258296B2, “Crystalline antifungal compounds” (Palau Pharma, S.A., priority 2006, dated 2012).

Tests used:
Format in all cases: physicochemical
[1] = Solid-form conversion on extended storage; conditions: storage for 3 months at 40° C. and 75% RH
From the text: (§1) Accordingly, the present subject matter relates to methods of identifying, obtaining, and purifying the various crystalline forms of (1R,2R)-7-chloro-3-[2-(2,4-difluorophenyl)-2-hydroxy-1-methyl-3-(1H-1,2,4-triazol-1-yl)propyl]quinazolin-4(3H)-one. These crystalline forms, namely Forms I-VI, were identified as six distinct crystal forms. Certain physical characteristics of these crystalline forms generated during crystallization studies, are as follows: • Form I: typically obtained by crystallizing the amorphous form using supercritical CO2 crystallization conditions. […] Diethyl ether can then be optionally added. […] Form V can best be characterized as a crystalline phase containing between about 2 and about 7% by weight of ethyl acetate and about 0.5 to about 2.5% by weight of hexane. • Form VI: typically obtained by slurrying (1R,2R)-7-chloro-3-[2-(2,4-difluorophenyl)-2-hydroxy-1-methyl-3-(1H-1,2,4-triazol-1-yl)propyl]quinazolin-4(3H)-one in aqueous ethanol or by slowly cooling a saturated aqueous ethanol solution that was seeded. This form may be obtained when the slurry comprises any other Form of (1R,2R)-7-chloro-3-[2-(2,4-difluorophenyl)-2-hydroxy-1-methyl-3-(1H-1,2,4-triazol-1-yl)propyl]quinazolin-4(3H)-one, such as, for example, the amorphous form, Form III, Form IV, Form V, or combinations thereof. […]

[2] = Slurry experiment to estimate rate of conversion of Form III to Form VI (XRPD); conditions: slurry at 45° C. in ethanol-water (1:9), seeded with Form VI, XRPD analysis
Procedure: Form VI may be prepared by slurrying albaconazole in aqueous ethanol or by slowly cooling a saturated aqueous ethanol solution that was seeded. In order to estimate rate of conversion, a slurry experiment of Form III was setup at 45° C. in ethanol-water (1:9), seeded with Form VI and aliquots periodically removed. Solids from the first aliquot removed after ˜3 hours were composed of only Form VI by XRPD analysis. A slow cool method was also attempted by cooling a saturated solution of albaconazole in aqueous ethanol that was seeded. Form VI solids were isolated in a 41% yield.

[3] = Storage stability, detection of degradation products
From the text: as §1

[4] = Hygroscopicity characterisation

time to complete conversion of slurry to Form VI [2] [h] | degradation products detected after storage ([3]; 6 months of storage at 25° C./60% RH) | degradation products detected after storage ([3]; 6 months of storage at 30° C./65% RH) | hygroscopicity [4] | Structure (SMILES) | conversion of the original form to Form IV on storage [1]
~3 | No degradation products | No degradation products |  | C[C@@H](n1cnc2cc(Cl)ccc2c1=O)[C@](O)(Cn1cncn1)c1ccc(F)cc1F [Form III, (1R,2R)-7-chloro-3-[2-(2,4-difluorophenyl)-2-hydroxy-1-methyl-3-(1H-1,2,4-triazol-1-yl)propyl]quinazolin-4(3H)-one] | some but not all of the original form converts to Form IV
 |  |  | non-hygroscopic | C[C@@H](n1cnc2cc(Cl)ccc2c1=O)[C@](O)(Cn1cncn1)c1ccc(F)cc1F [Form VI, (1R,2R)-7-chloro-3-[2-(2,4-difluorophenyl)-2-hydroxy-1-methyl-3-(1H-1,2,4-triazol-1-yl)propyl]quinazolin-4(3H)-one] | 
